Experiments:
[1] = biological target: T1, Vitamin D3 receptor (Bos taurus) (UniProt Q28037); assay: Displacement of [3H]-1alpha,25 dihydroxyvitamin D3 from bovine thymus VDR after 60 mins relative to 1alpha,25-dihydroxyvitamin D3
T1 sequence (whole entry): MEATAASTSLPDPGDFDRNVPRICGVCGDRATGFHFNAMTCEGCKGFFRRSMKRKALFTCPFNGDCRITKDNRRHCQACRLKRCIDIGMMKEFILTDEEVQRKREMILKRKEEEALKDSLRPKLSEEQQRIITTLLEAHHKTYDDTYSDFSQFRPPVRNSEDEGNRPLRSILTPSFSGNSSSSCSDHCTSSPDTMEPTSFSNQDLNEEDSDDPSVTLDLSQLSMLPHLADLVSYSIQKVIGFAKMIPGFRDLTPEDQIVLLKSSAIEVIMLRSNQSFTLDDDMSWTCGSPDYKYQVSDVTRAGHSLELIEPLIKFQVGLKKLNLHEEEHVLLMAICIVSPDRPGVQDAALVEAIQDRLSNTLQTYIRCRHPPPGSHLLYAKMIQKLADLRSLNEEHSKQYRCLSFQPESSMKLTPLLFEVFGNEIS

[2] = biological target: T1, Vitamin D3 receptor (Bos taurus); assay: Binding affinity to bovine thymus VDR relative to 1alpha,25-dihydroxyvitamin D3
[3] = biological target: T2, Vitamin D3 receptor (Homo sapiens) (UniProt P11473); assay: Binding affinity to VDR (unknown origin) relative to 1alpha,25-dihydroxyvitamin D3
T2 sequence (whole entry): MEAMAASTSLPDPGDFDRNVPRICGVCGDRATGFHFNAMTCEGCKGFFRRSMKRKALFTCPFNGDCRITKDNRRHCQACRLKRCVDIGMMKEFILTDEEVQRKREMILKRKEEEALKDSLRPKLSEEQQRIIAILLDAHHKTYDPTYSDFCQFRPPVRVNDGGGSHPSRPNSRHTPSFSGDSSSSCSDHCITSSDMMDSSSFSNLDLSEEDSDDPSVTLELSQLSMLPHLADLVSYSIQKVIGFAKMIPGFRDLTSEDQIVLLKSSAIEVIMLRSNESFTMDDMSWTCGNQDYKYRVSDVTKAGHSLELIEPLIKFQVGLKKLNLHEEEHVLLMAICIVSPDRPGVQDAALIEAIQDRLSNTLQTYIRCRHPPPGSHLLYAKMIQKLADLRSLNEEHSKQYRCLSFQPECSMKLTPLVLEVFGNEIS

SMILES | fold change (FC) [1] | further results
C=C1/C(=C\C=C2/CCC[C@]3(C)[C@@H]([C@H](C)CCCC(C)(C)O)CC[C@@H]23)C[C@H](O)C2(COC2)[C@@H]1O | 0.04 | –
C=C1/C(=C\C=C2/CCC[C@]3(C)[C@@H]([C@H](C)CCCC(C)(C)O)CC[C@@H]23)C[C@H](O)C2(COC2)[C@H]1O | 0.001 | –
C=C1/C(=C\C=C2/CCC[C@]3(C)[C@@H]([C@H](C)CCCC(C)(C)O)CC[C@@H]23)C[C@@H](O)[C@H](C)[C@@H]1O | – | fold change (FC) [2]: 400
C=C1/C(=C\C=C2/CCC[C@]3(C)[C@@H]([C@H](C)CCCC(C)(C)O)CC[C@@H]23)C[C@@H](O)C[C@@H]1O | 100 | –
C=C1/C(=C\C=C2/CCC[C@]3(C)[C@@H]([C@H](C)CCCC(C)(C)O)CC[C@@H]23)C[C@@H](O)[C@@H](C)[C@@H]1O | – | fold change (FC) [2]: 13
C=C1/C(=C\C=C2/CCC[C@]3(C)[C@@H]([C@H](C)CCCC(C)(C)O)CC[C@@H]23)C[C@@H](O)C2(COC2)[C@H]1O | 0.002 | –
C=C1/C(=C\C=C2/CCC[C@]3(C)[C@@H]([C@H](C)CCCC(C)(C)O)CC[C@@H]23)C[C@@H](O)C2(COC2)[C@@H]1O | 5 | –
C=C1/C(=C\C=C2/CCC[C@]3(C)[C@@H]([C@H](C)CCCC(C)(C)O)CC[C@@H]23)C[C@@H](O)C(C)(C)[C@@H]1O | – | fold change (FC) [3]: 3

— ChEMBL document CHEMBL2413049, “Design and synthesis of novel 1,25-dihydroxyvitamin D3 analogues having a spiro-oxetane fused at the C2 position in the A-ring” (Bioorg Med Chem, 2013)
